# How the values were obtained:
# [1] = tested on: caspase-11; test: Caspase enzyme assay (residual caspase-11 activity); assay type: biochemical, mouse
# [2] = target: MT1-MMP; design: method as in 2 sources, ref [19] = [19]; PMID 28394608; doi:10.1021/acs.jmedchem.7b00018; 19. Bhowmick M. Tokmina-Roszyk D. Onwuha-Ekpete L. Harmon K. Robichaud T. Fuerst R. Stawikowska R. Steffensen B. Roush W.R. Wong H. Second Generation Triple-Helical Peptide Transition State Analog Mat ||| ref [15],[19] = [15]; PMID 17672455; doi:10.1021/ja0715849; 15. Lauer-Fields J.L. Brew K. Whitehead J.K. Li S. Hammer R.P. Fields G.B. Triple-helical transition-state analogs: A new class of selective matrix metalloproteinase inhibitors J. Am. Chem. Soc. 2007 || [19]; PMID 28394608; doi:10.1021/acs.jmedchem.7b00018; 19. Bhowmick M. Tokmina-Roszyk D. Onwuha-Ekpete L. Harmon K. Robichaud T. Fuerst R. Stawikowska R. Steffensen B. Roush W.R. Wong H. Second Generation Triple-Helical Peptide Transition State Analog Mat; conditions: no or weak inhibition of MT1-MMP; ref [15],[19]; cited from earlier work
# [3] = target: MMP-3; design: method as in 2 sources, ref [19] = [19]; PMID 28394608; doi:10.1021/acs.jmedchem.7b00018; 19. Bhowmick M. Tokmina-Roszyk D. Onwuha-Ekpete L. Harmon K. Robichaud T. Fuerst R. Stawikowska R. Steffensen B. Roush W.R. Wong H. Second Generation Triple-Helical Peptide Transition State Analog Mat ||| ref [15],[19] = [15]; PMID 17672455; doi:10.1021/ja0715849; 15. Lauer-Fields J.L. Brew K. Whitehead J.K. Li S. Hammer R.P. Fields G.B. Triple-helical transition-state analogs: A new class of selective matrix metalloproteinase inhibitors J. Am. Chem. Soc. 2007 || [19]; PMID 28394608; doi:10.1021/acs.jmedchem.7b00018; 19. Bhowmick M. Tokmina-Roszyk D. Onwuha-Ekpete L. Harmon K. Robichaud T. Fuerst R. Stawikowska R. Steffensen B. Roush W.R. Wong H. Second Generation Triple-Helical Peptide Transition State Analog Mat; conditions: no or weak inhibition of MMP-3; ref [15],[19]; cited from earlier work
# [4] = target: MMP-1; design: method as in 2 sources, ref [19] = [19]; PMID 28394608; doi:10.1021/acs.jmedchem.7b00018; 19. Bhowmick M. Tokmina-Roszyk D. Onwuha-Ekpete L. Harmon K. Robichaud T. Fuerst R. Stawikowska R. Steffensen B. Roush W.R. Wong H. Second Generation Triple-Helical Peptide Transition State Analog Mat ||| ref [15],[19] = [15]; PMID 17672455; doi:10.1021/ja0715849; 15. Lauer-Fields J.L. Brew K. Whitehead J.K. Li S. Hammer R.P. Fields G.B. Triple-helical transition-state analogs: A new class of selective matrix metalloproteinase inhibitors J. Am. Chem. Soc. 2007 || [19]; PMID 28394608; doi:10.1021/acs.jmedchem.7b00018; 19. Bhowmick M. Tokmina-Roszyk D. Onwuha-Ekpete L. Harmon K. Robichaud T. Fuerst R. Stawikowska R. Steffensen B. Roush W.R. Wong H. Second Generation Triple-Helical Peptide Transition State Analog Mat; conditions: no or weak inhibition of MMP-1; ref [15],[19]; cited from earlier work
# [5] = target: T1, MMP-2 (Homo sapiens, UniProt P08253); conditions: 37 °C; ref [15],[19]; cited from earlier work
# T1 construct: Recombinant MMP-2 and MMP-9 catalytic domain were purchased from Sigma-Aldrich; purchased Sigma-Aldrich
# T1 sequence (P08253 110-660): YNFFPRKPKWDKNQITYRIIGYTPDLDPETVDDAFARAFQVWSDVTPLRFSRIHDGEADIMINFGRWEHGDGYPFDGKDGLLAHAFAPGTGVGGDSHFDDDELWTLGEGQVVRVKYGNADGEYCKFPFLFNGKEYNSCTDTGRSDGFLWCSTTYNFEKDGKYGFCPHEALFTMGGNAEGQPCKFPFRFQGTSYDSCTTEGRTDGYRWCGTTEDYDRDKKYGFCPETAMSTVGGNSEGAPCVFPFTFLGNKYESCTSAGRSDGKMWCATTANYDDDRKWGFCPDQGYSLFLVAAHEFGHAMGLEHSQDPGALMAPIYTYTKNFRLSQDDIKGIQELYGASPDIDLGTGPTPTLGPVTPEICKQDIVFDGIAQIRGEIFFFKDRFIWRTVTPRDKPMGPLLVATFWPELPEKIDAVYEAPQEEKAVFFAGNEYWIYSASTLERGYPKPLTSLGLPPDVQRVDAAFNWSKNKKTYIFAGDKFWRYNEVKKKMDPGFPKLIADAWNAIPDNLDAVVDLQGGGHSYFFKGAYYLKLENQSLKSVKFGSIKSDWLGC
# [6] = target: T2, MMP-8 (Homo sapiens, UniProt P22894); design: method as in 2 sources, ref [19] = [19]; PMID 28394608; doi:10.1021/acs.jmedchem.7b00018; 19. Bhowmick M. Tokmina-Roszyk D. Onwuha-Ekpete L. Harmon K. Robichaud T. Fuerst R. Stawikowska R. Steffensen B. Roush W.R. Wong H. Second Generation Triple-Helical Peptide Transition State Analog Mat ||| ref [15],[19] = [15]; PMID 17672455; doi:10.1021/ja0715849; 15. Lauer-Fields J.L. Brew K. Whitehead J.K. Li S. Hammer R.P. Fields G.B. Triple-helical transition-state analogs: A new class of selective matrix metalloproteinase inhibitors J. Am. Chem. Soc. 2007 || [19]; PMID 28394608; doi:10.1021/acs.jmedchem.7b00018; 19. Bhowmick M. Tokmina-Roszyk D. Onwuha-Ekpete L. Harmon K. Robichaud T. Fuerst R. Stawikowska R. Steffensen B. Roush W.R. Wong H. Second Generation Triple-Helical Peptide Transition State Analog Mat; conditions: no or weak inhibition of MMP-8; ref [15],[19]; cited from earlier work
# T2 construct: purchased R&D Systems
# [7] = target: T3, MMP-9 (Homo sapiens, UniProt P14780); conditions: 37 °C; ref [15],[19]; cited from earlier work
# T3 construct: Recombinant MMP-2 and MMP-9 catalytic domain were purchased from Sigma-Aldrich; purchased Sigma-Aldrich
# [8] = ref [19]; cited from earlier work
# [9] = target: MMP-13 (Homo sapiens, UniProt P45452); conditions: no or weak inhibition of MMP-13; ref [15],[19]; cited from earlier work
# T2 sequence (P22894 101-467): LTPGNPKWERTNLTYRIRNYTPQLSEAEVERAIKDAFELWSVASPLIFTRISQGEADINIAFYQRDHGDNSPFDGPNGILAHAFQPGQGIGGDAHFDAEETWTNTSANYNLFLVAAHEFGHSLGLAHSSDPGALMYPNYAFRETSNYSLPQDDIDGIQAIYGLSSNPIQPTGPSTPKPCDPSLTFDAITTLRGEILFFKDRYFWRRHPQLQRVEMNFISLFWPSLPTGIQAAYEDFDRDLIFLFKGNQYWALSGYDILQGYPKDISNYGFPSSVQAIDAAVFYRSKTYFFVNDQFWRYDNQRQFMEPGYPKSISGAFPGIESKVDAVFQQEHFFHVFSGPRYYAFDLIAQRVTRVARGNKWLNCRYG
# T3 sequence (P14780 107-444 limits assumed, species assumed): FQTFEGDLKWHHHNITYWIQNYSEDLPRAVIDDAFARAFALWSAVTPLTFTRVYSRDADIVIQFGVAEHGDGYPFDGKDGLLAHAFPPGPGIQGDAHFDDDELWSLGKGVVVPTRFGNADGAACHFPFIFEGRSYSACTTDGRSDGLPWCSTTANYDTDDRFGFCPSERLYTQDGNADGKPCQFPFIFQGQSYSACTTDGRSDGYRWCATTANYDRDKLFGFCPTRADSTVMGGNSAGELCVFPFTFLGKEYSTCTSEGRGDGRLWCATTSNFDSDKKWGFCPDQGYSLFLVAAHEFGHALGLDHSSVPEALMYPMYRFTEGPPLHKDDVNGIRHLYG
"inhibition of caspase-11 activity ([1]; 5 μM inhibitor incubated with enzyme 2 h prior to substrate, 3 U/μL (1.08 μM) caspase-11, 250 μM acetyl-Trp-Glu-His-Asp-pNA, pH 6.5, 37 °C, absorbance 405 nm, result in words (up to 15 min))","change in extent of caspase-11 inhibition over time ([1]; 5 μM inhibitor, 2 h pre-incubation, 1 h monitoring, data not shown)",Substance,Ki [2] [µM],Ki [3] [µM],Ki [4] [µM],Ki [5] [µM],"inhibition of caspase-11 activity at early time points ([1]; 5 μM inhibitor, 2 h inhibitor pre-incubation (Figure 2), stated to be similar to no pre-incubation)","inhibition of caspase-11 activity at early time points ([1]; no inhibitor pre-incubation time, data not shown)",Ki [6] [µM],Ki [7] [µM],efficacy in animal model of multiple sclerosis [8],Ki [9] [µM]
completely inhibit enzymatic activity,,Ac-LEVD-aldehyde (SMILES CC(=O)N[C@@H](CC(C)C)C(=O)N[C@@H](CCC(=O)O)C(=O)N[C@H](C(=O)N[C@H](C=O)CC(=O)O)C(C)C) [reference compound],,,,,,,,,,
,did not increase after 1 h,(Gly-Pro-Hyp)4-Gly-mep-Flp-Gly-Pro-Pro-GlyΨ{PO2H-CH2}Val-Val-Gly-Glu-Gln-Gly-Glu-Gln-Gly-Pro-Pro-Gly-mep-Flp-(Gly-Pro-Hyp)4-NH2,10 to 50,10 to 50,10 to 50,0.00224,no inhibition to occur at early time points,no inhibition to occur at early time points,10 to 50,0.00098,efficacious in an animal model of multiple sclerosis,10 to 50
